Reference: patent US6773892B1, “Methods of identifying and determining the effectiveness of therapeutic processes or agents for the treatment of schizophrenia and related disorders” (Northeastern University, priority 1997, dated 2004)
Read-outs that look alike come from different tables or passages of the source.

What was measured:
dopamine D4 receptors = target: T1, dopamine D4 receptors (Homo sapiens, UniProt P21917); conditions: Schlacter et al., Soc. Neurosci. Abstr. 1995; read-out: reported KD; cited from earlier work
T1 sequence (P21917 1-419): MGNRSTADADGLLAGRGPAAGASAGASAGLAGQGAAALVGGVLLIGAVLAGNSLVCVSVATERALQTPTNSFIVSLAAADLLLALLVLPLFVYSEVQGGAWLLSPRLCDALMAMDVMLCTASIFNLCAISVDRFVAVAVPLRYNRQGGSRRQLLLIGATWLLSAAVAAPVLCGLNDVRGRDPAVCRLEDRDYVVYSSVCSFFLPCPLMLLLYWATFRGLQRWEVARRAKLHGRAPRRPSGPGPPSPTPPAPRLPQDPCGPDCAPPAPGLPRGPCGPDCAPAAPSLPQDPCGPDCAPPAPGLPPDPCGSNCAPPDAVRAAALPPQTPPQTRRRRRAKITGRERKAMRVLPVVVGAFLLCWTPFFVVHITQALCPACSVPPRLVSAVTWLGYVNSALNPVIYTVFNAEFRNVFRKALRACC

D4 receptor = target: T2, D4 receptor (Homo sapiens, UniProt P21917); test: [14C] formate-labelled phospholipid methylation in CHO/D4 cells; assay type: cell-based; conditions: absence of agonist
T2 construct: expressed in transfected cells; host or cells: CHO cells
T2 sequence (P21917 1-419): T1 sequence (P21917 1-419)
Description: CHO cells transfected with the D4 receptor gene were fed with minimum essential medium (alpha modifications, with or without nucleosides) (pH 7.2) containing 2 mM L-glutamine, W/G418 antibiotic (400 mg/L), donor horse serum (2.5%), fetal bovine serum (2.5%), penicillin/streptomycin/fungizone (1%), CuSO4 (10^−6M). Cells (200,000 cells/well) were plated in 6-well- plates and placed in 5% CO2 incubator at 37° C.
Two-day-old confluent, cultured D4-transfected CHO cells were used for assay. The pH of Hank's balanced buffer (HBSS) was adjusted to pH 7.4 using sodium bicarbonate buffer. [^14C]-formic acid (1 μCi/ml) and pharmacological agents were added to HBSS. Feeding medium was removed from the well and then 600 μl of the HBSS solution with the radiolabelled formic acid (warmed to 37° C.) was added to each well of 6-well-plates. Plates were incubated at 37° C. for 30 minutes in the culture incubator. The reaction was stopped by washing once with ice-cold PBS (pH 7.4) and, after aspirating off the HBSS, 500 μl of 10% trichloroacetic acid (TCA) was added. Cells were harvested by scraping with a cell scraper and transferred into a plastic microcentrifuge tube. […] CPM values were normalized to the protein content of each sample and expressed as the mean +/− S.E.M. for the group. Differences between groups were analyzed by a t-test with p<0.05 as the criterion for significance.

SK-N-MC cells = SK-N-MC cells grown in the presence of nucleosides
lymphocytes = conditions: for stimulation of phospholipid methylation: dopamine (10 μM) and GTP (1 μM); for inhibition of phospholipid methylation below basal: haloperidol 1 μM with dopamine/GTP
Description: In an early hypothesis (“the transmethylation hypothesis”), a defect resulting in the formation of hallucinogens was proposed. […] To determine whether D4 receptor-dependent phospholipid methylation was altered in individuals with schizophrenia, males ages 27-70 with well documented schizophrenia by DSM-IV criteria, were studied and compared with normal controls.
To determine whether D4 receptor-dependent phospholipid methylation was altered in schizophrenia, the labelling of phospholipids by [^3H]-methyl-methionine in lymphocytes obtained from people with schizophrenia (as defined by DSM IV diagnostic criteria Diagnostic and Statistical Manual of Mental Disorders (4th Edition), American Psychiatric Association, Washington, D.C., […], pp. 759-764) under medical treatment) was measured as compared to lymphocytes from healthy controls. Lymphocytes were isolated as previously described (De La Rosa et al., J. Biol. Chem. 267:10699, 1992) and aliquots of 4×10^6 cells were resuspended in Hank's balanced salt solution containing 8 μCi/ml [^3H-methyl]methionine for 60 min. […] Incorporation of [^3H-methyl] label into phospholipids was determined as described in Example I.

[1] = lymphocytes of schizophrenia patients

Structure (SMILES): CC(C)Oc1cccnc1N(C)C1CCN(Cc2ccccc2)CC1 [U-101,958]
- Kd (dopamine D4 receptors): 1 nM
- effect on [14C] formate-labelled phospholipid methylation, FIG. 3b (D4 receptor; CHO/D4 cells grown in nucleoside-free medium): dose-dependent inhibition
- IC50 (D4 receptor; CHO/D4 cells, read-out: IC50 of inhibition of phospholipid methylation): 0.2 nM

Structure (SMILES): NCCc1ccc(O)c(O)c1 [dopamine]
- effect on [14C] formate-labelled phospholipid methylation, FIG. 3c (SK-N-MC cells): dose-dependent dopamine stimulation
- stimulation of phospholipid methylation (lymphocytes; lymphocytes of normal controls): 30%
- stimulation of phospholipid methylation (lymphocytes; [1]): 165%

Structure (SMILES): O=C(CCCN1CCC(O)(c2ccc(Cl)cc2)CC1)c1ccc(F)cc1 [haloperidol]
- effect on methyl incorporation into phospholipids, FIG. 4B (lymphocytes; both control and schizophrenia lymphocytes, dopamine 10 μM and GTP 1 mM, with or without haloperidol 1 μM): significant decrease
- inhibition of phospholipid methylation below basal (lymphocytes; lymphocytes of normal controls): 25%
- inhibition of phospholipid methylation below basal (lymphocytes; [1]): 39%
